Measured values taken from patent publication US7919133B2, “Substituted cyclopropanecarboxylic acid (3-methyl-cyclohexyl)amide as flavoring substance” (SYMRISE GmbH & Co. KG, priority 2007, dated 2011).

Assays:
[1] = Tasting in the applicant's own investigations; assay type: in vivo; conditions: for Umami-properties: in vivo
[2] = as given in US 2004/0202760 and US 2004/0202619; cited from earlier work
[3] = among substituted benzoic amides of WO 2006/099762; cited from earlier work
[4] = Panel tasting in 0.5% American beef extract / beef broth as base (FIG. 1, scores 0 to 6); assay type: in vivo
Source text: In spider diagram attached as FIG. 1, American beef broth is exemplarily compared as a base, with firstly such a base with an addition of 5 ppm of mixture of cyclopropanecarboxylic acid-((1S,2S,5R)-2-isopropyl-5-methyl-cyclohexyl)-amide (11) and Cyclopropanecarboxylic acid-((1R,2R,5S)-2-isopropyl-5-methyl-cyclohexyl)-amide (12) (mixing ratio of 1:1) and secondly with such a base with an addition of 0.05 wt.-% of MSG.
With the aid of tasting by a panel of trained subjects, the taste of a 0.5% American beef extract as base (light grey line) was compared with the taste of firstly, such a base, to which 5 ppm of mixture consisting of cyclopropanecarboxylic acid-((1S,2S,5R)-2-isopropyl-5-methyl-cyclohexyl)amide (11) and cyclopropanecarboxylic acid-((1R,2R,5S)-2-isopropyl-5-methyl-cyclohexyl)amide (12) was added (solid line), and secondly such a base, to which 0.05 wt.-% of MSG was added (broken line).
The subjects rated the strength of the stated trend of taste by ranking of scores on a scale from 0 (no corresponding taste) to 6 (very strong corresponding taste). The average values of respective scores are illustrated.

CC(C)[C@@H]1CC[C@@H](C)C[C@@H]1NC(=O)C1CC1 [(11), Cyclopropanecarboxylic acid-((1S,2S,5R)-2-isopropyl-5-methyl-cyclohexyl)amide]
Umami-properties [1]: interesting and strong Umami-properties

CC/C=C\CC/C=C/C(=O)NC1CC1 [N-cyclopropyl-E2,Z6-nonadiene amide]
sensory impression [2]: effect similar to MSG

COC(=O)c1ccc(C(=O)NC2CC(C)CCC2C(C)C)cc1 (centres unmarked)
cooling effect [3]: strongest ascertained cooling effect

CCCCC/C=C\CC/C=C/C(=O)NCC [N-ethyl-E2,Z6-dodecadiene amide]
sensory impression [2]: effect similar to MSG

O=C(NC1CCCCC1)C1CC1 [Cyclopropanecarboxylic acid cyclohexyl amide]
taste rating ([1]; tasting in own investigations): taste-neutral | creating or enhancing of an Umami taste impression [4]: no creating or enhancing of an Umami taste impression could be verified

CC(C)[C@H]1CC[C@H](C)C[C@H]1NC(=O)C1CC1 [(12), Cyclopropanecarboxylic acid-((1R,2R,5S)-2-isopropyl-5-methyl-cyclohexyl)amide]
Umami-properties [1]: interesting and strong Umami-properties

CC/C=C\CC/C=C/C(=O)NCC [N-ethyl-E2,Z6-nonadiene amide]
sensory impression [2]: effect similar to MSG
